# Key:
# tubulin = test: turbidimetric tubulin polymerisation assay with irradiation; type: biochemical; conditions: for tubulin polymerisation inhibition: 50 and 25 μM
# Method: Turbidimetric tubulin polymerisation assays were performed as described in the literature^[29], following the increase in absorbance at 340 nm, but with the addition of irradiation supplied by the monochromator setup described in Part B. Two wavelengths were chosen for each compound, λE->Z (chosen to effect bulk trans->cis isomerisation, typically 390 nm), and λZ->E (chosen to effect bulk cis->trans isomerisation, typically 505 nm). The raw absorbance A(t) could be more clearly discussed by first correcting for any change in azoaryl absorbance over time by subtracting the absorbance of a control run performed without tubulin, yielding the corrected absorbance A*(t), and then taking its derivative R=dA*(t)/dt. Experiments were performed under six sets of conditions to illustrate the light control of tubulin polymerisation inhibition effected by the compounds of the invention: (a) in the dark (typical result: large R at the start decreasing rapidly over time), or (b) with constant irradiation at λE->Z (typical result: small R throughout the experiment), or (c) with constant irradiation at λZ->E (typical result: moderate R at the start decreasing slowly over time), or (d) with irradiation at λE->Z for an initial period then darkness (typical result: initial period with small R, then R increases after a while), or (e) with irradiation at λE->Z for a given period (typically 30 min) then irradiation at λZ->E (typical result: 30 minutes with small R, then R increases quickly to a moderate value which decreases slowly over time), or (f) with irradiation at λE->Z for a given period (usually 30 min) then a short irradiation at λZ->E (usually 30 seconds) then darkness (typical result: 30 minutes with small R, then R increases quickly to a moderate-to-large value which decreases slowly over time); the last three conditions required correction of A(t) to A*(t) to reveal the changes in absorption which were due only to tubulin polymerisation. It would be costly to determine light-dependent in vitro tubulin polymerisation IC50 values for each compound, eg. under protocols (a) and (b) (and/or (c)). This was not performed here since it was considered that such parameters have little predictive value in their intended complex biological settings, especially in light of the importance of biodistribution, tubulin-binding kinetics and lability (rather than thermodynamic binding strength) for tubulin disruption in biological settings.
# Table 3 below illustrates typical results from experiments of type (a) (“DARK”) and (b) (“390 nm”) as described above, with compound (I.1) at concentrations well above the IC50 for the toxic regime, compared to a PBS-only control CTRL (no I.1 present).
# HeLa = test: membrane permeability, PI uptake in nonpermeabilized cells; type: cell-based; conditions: 70 h
# Method: Membrane integrity was assessed as a marker of cellular viability, via examining the uptake of propidium iodide (PI) in nonpermeabilized cells according to a standard protocol. Namely, cells were harvested and incubated with 5 μg/mL PI in PBS containing 2% FCS (foetal calf serum), and immediately analysed by flow cytometry using a FACSCalibur flow cytometer.
structure (smiles),measurement,setting,value
"COc1ccc(N=Nc2cc(OC)c(OC)c(OC)c2)cc1O [I.1, 2-methoxy-5-((3,4,5-trimethoxyphenyl)diazenyl)phenol]",A(λ = 340 nm),"tubulin; 25 μM, 390 nm, 0.0 min",0.0000
same,A(λ = 340 nm),"tubulin; 25 μM, 390 nm, 0.5 min",−0.0026
same,A(λ = 340 nm),"tubulin; 25 μM, 390 nm, 1.0 min",−0.0022
same,A(λ = 340 nm),"tubulin; 25 μM, 390 nm, 1.5 min",−0.0022
same,A(λ = 340 nm),"tubulin; 25 μM, 390 nm, 2.0 min",−0.0010
same,A(λ = 340 nm),"tubulin; 25 μM, 390 nm, 3.0 min",0.0004
same,A(λ = 340 nm),"tubulin; 25 μM, 390 nm, 3.5 min",0.0029
same,A(λ = 340 nm),"tubulin; 25 μM, 390 nm, 4.0 min",0.0027
same,A(λ = 340 nm),"tubulin; 25 μM, 390 nm, 4.5 min",0.0034
same,A(λ = 340 nm),"tubulin; 25 μM, 390 nm, 5.0 min",0.0100
same,A(λ = 340 nm),"tubulin; 25 μM, 390 nm, 5.5 min",0.0094
same,A(λ = 340 nm),"tubulin; 25 μM, 390 nm, 6.0 min",0.0132
same,A(λ = 340 nm),"tubulin; 25 μM, 390 nm, 6.5 min",0.0174
same,A(λ = 340 nm),"tubulin; 25 μM, 390 nm, 7.0 min",0.0171
same,A(λ = 340 nm),"tubulin; 25 μM, 390 nm, 7.5 min",0.0222
same,A(λ = 340 nm),"tubulin; 25 μM, 390 nm, 8.0 min",0.0241
same,A(λ = 340 nm),"tubulin; 25 μM, 390 nm, 8.5 min",0.0259
same,A(λ = 340 nm),"tubulin; 25 μM, 390 nm, 9.0 min",0.0288
same,A(λ = 340 nm),"tubulin; 25 μM, 390 nm, 9.5 min",0.0313
same,A(λ = 340 nm),"tubulin; 25 μM, 390 nm, 10.0 min",0.0341
same,A(λ = 340 nm),"tubulin; 25 μM, 390 nm, 10.5 min",0.0358
same,A(λ = 340 nm),"tubulin; 25 μM, 390 nm, 11.0 min",0.0402
same,A(λ = 340 nm),"tubulin; 25 μM, 390 nm, 11.5 min",0.0413
same,A(λ = 340 nm),"tubulin; 25 μM, 390 nm, 12.0 min",0.0443
same,A(λ = 340 nm),"tubulin; 25 μM, 390 nm, […]",−0.0001
same,A(λ = 340 nm),"tubulin; 25 μM, DARK, 0.0 min",0.0000
same,A(λ = 340 nm),"tubulin; 25 μM, DARK, 0.5 min",0.0001
same,A(λ = 340 nm),"tubulin; 25 μM, DARK, 1.0 min",−0.0016
same,A(λ = 340 nm),"tubulin; 25 μM, DARK, 1.5 min",0.0018
same,A(λ = 340 nm),"tubulin; 25 μM, DARK, 2.0 min",0.0119
same,A(λ = 340 nm),"tubulin; 25 μM, DARK, 3.0 min",0.0492
same,A(λ = 340 nm),"tubulin; 25 μM, DARK, 3.5 min",0.0689
same,A(λ = 340 nm),"tubulin; 25 μM, DARK, 4.0 min",0.0851
same,A(λ = 340 nm),"tubulin; 25 μM, DARK, 4.5 min",0.0984
same,A(λ = 340 nm),"tubulin; 25 μM, DARK, 5.0 min",0.1073
same,A(λ = 340 nm),"tubulin; 25 μM, DARK, 5.5 min",0.1133
same,A(λ = 340 nm),"tubulin; 25 μM, DARK, 6.0 min",0.1150
same,A(λ = 340 nm),"tubulin; 25 μM, DARK, 6.5 min",0.1212
same,A(λ = 340 nm),"tubulin; 25 μM, DARK, 7.0 min",0.1249
same,A(λ = 340 nm),"tubulin; 25 μM, DARK, 7.5 min",0.1228
same,A(λ = 340 nm),"tubulin; 25 μM, DARK, 8.0 min",0.1250
same,A(λ = 340 nm),"tubulin; 25 μM, DARK, 8.5 min",0.1259
same,A(λ = 340 nm),"tubulin; 25 μM, DARK, 9.0 min",0.1240
same,A(λ = 340 nm),"tubulin; 25 μM, DARK, 9.5 min",0.1276
same,A(λ = 340 nm),"tubulin; 25 μM, DARK, 10.0 min",0.1276
same,A(λ = 340 nm),"tubulin; 25 μM, DARK, 10.5 min",0.1255
same,A(λ = 340 nm),"tubulin; 25 μM, DARK, 11.0 min",0.1290
same,A(λ = 340 nm),"tubulin; 25 μM, DARK, 11.5 min",0.1299
same,A(λ = 340 nm),"tubulin; 25 μM, DARK, 12.0 min",0.1333
same,A(λ = 340 nm),"tubulin; 25 μM, DARK, […]",0.0274
same,A(λ = 340 nm),"tubulin; 50 μM, 390 nm, 0.0 min",0.0000
same,A(λ = 340 nm),"tubulin; 50 μM, 390 nm, 0.5 min",0.0014
same,A(λ = 340 nm),"tubulin; 50 μM, 390 nm, 1.0 min",0.0020
same,A(λ = 340 nm),"tubulin; 50 μM, 390 nm, 1.5 min",0.0033
same,A(λ = 340 nm),"tubulin; 50 μM, 390 nm, 2.0 min",0.0027
same,A(λ = 340 nm),"tubulin; 50 μM, 390 nm, 3.0 min",0.0066
same,A(λ = 340 nm),"tubulin; 50 μM, 390 nm, 3.5 min",0.0074
same,A(λ = 340 nm),"tubulin; 50 μM, 390 nm, 4.0 min",0.0100
same,A(λ = 340 nm),"tubulin; 50 μM, 390 nm, 4.5 min",0.0084
same,A(λ = 340 nm),"tubulin; 50 μM, 390 nm, 5.0 min",0.0122
same,A(λ = 340 nm),"tubulin; 50 μM, 390 nm, 5.5 min",0.0166
same,A(λ = 340 nm),"tubulin; 50 μM, 390 nm, 6.0 min",0.0163
same,A(λ = 340 nm),"tubulin; 50 μM, 390 nm, 6.5 min",0.0172
same,A(λ = 340 nm),"tubulin; 50 μM, 390 nm, 7.0 min",0.0213
same,A(λ = 340 nm),"tubulin; 50 μM, 390 nm, 7.5 min",0.0209
same,A(λ = 340 nm),"tubulin; 50 μM, 390 nm, 8.0 min",0.0221
same,A(λ = 340 nm),"tubulin; 50 μM, 390 nm, 8.5 min",0.0268
same,A(λ = 340 nm),"tubulin; 50 μM, 390 nm, 9.0 min",0.0268
same,A(λ = 340 nm),"tubulin; 50 μM, 390 nm, 9.5 min",0.0293
same,A(λ = 340 nm),"tubulin; 50 μM, 390 nm, 10.0 min",0.0320
same,A(λ = 340 nm),"tubulin; 50 μM, 390 nm, 10.5 min",0.0318
same,A(λ = 340 nm),"tubulin; 50 μM, 390 nm, 11.0 min",0.0327
same,A(λ = 340 nm),"tubulin; 50 μM, 390 nm, 11.5 min",0.0333
same,A(λ = 340 nm),"tubulin; 50 μM, 390 nm, 12.0 min",0.0359
same,A(λ = 340 nm),"tubulin; 50 μM, 390 nm, […]",0.0052
same,A(λ = 340 nm),"tubulin; 50 μM, DARK, 0.0 min",0.0000
same,A(λ = 340 nm),"tubulin; 50 μM, DARK, 0.5 min",0.0010
same,A(λ = 340 nm),"tubulin; 50 μM, DARK, 1.0 min",0.0014
same,A(λ = 340 nm),"tubulin; 50 μM, DARK, 1.5 min",0.0034
same,A(λ = 340 nm),"tubulin; 50 μM, DARK, 2.0 min",0.0128
same,A(λ = 340 nm),"tubulin; 50 μM, DARK, 3.0 min",0.0552
same,A(λ = 340 nm),"tubulin; 50 μM, DARK, 3.5 min",0.0734
same,A(λ = 340 nm),"tubulin; 50 μM, DARK, 4.0 min",0.0926
same,A(λ = 340 nm),"tubulin; 50 μM, DARK, 4.5 min",0.1046
same,A(λ = 340 nm),"tubulin; 50 μM, DARK, 5.0 min",0.1139
same,A(λ = 340 nm),"tubulin; 50 μM, DARK, 5.5 min",0.1209
same,A(λ = 340 nm),"tubulin; 50 μM, DARK, 6.0 min",0.1269
same,A(λ = 340 nm),"tubulin; 50 μM, DARK, 6.5 min",0.1284
same,A(λ = 340 nm),"tubulin; 50 μM, DARK, 7.0 min",0.1262
same,A(λ = 340 nm),"tubulin; 50 μM, DARK, 7.5 min",0.1379
same,A(λ = 340 nm),"tubulin; 50 μM, DARK, 8.0 min",0.1338
same,A(λ = 340 nm),"tubulin; 50 μM, DARK, 8.5 min",0.1359
same,A(λ = 340 nm),"tubulin; 50 μM, DARK, 9.0 min",0.1367
same,A(λ = 340 nm),"tubulin; 50 μM, DARK, 9.5 min",0.1374
same,A(λ = 340 nm),"tubulin; 50 μM, DARK, 10.0 min",0.1397
same,A(λ = 340 nm),"tubulin; 50 μM, DARK, 10.5 min",0.1370
same,A(λ = 340 nm),"tubulin; 50 μM, DARK, 11.0 min",0.1405
same,A(λ = 340 nm),"tubulin; 50 μM, DARK, 11.5 min",0.1417
same,A(λ = 340 nm),"tubulin; 50 μM, DARK, 12.0 min",0.1402
same,A(λ = 340 nm),"tubulin; 50 μM, DARK, […]",0.0305
same,tubulin polymerisation inhibition,tubulin; 390 nm irradiation,very strongly inhibited
same,tubulin polymerisation inhibition,tubulin; in the dark,not inhibited
same,mean % cells PI+,"HeLa; 200 nM, 390 nm (1 s every 15 min)",4.5%
same,mean % cells PI+,"HeLa; 200 nM, dark",4.5%
same,mean % cells PI+,"HeLa; 600 nM, 390 nm (1 s every 15 min)",8.2%
same,mean % cells PI+,"HeLa; 600 nM, dark",4.3%
same,mean % cells PI+,"HeLa; 1.5 μM, 390 nm (1 s every 15 min)",46.1%
same,mean % cells PI+,"HeLa; 1.5 μM, dark",4.2%
same,mean % cells PI+,"HeLa; 5 μM, 390 nm (1 s every 15 min)",73.0%
same,mean % cells PI+,"HeLa; 5 μM, dark",5.1%

# Source: patent US20170051149A1, “AZOARYLS AS REVERSIBLY MODULATABLE TUBULIN INHIBITORS” (ECOLE NORMALE SUPERIEURE DE LYON, priority 2014, published 2017)
